One test addresses T1, Syk (Homo sapiens, UniProt P43405).
T1 construct: purchased Promega
The test is described as follows: Syk Biochemical Assay (ADP-Glo luminescence). Conditions: ATP 40 μM final, 60 minutes, read-out: SYK Biochem IC50. The protocol:
Compounds were serially diluted in 100% DMSO, prior to an intermediate dilution in water. In a low volume white 384-well Proxiplate (Perkin Elmer), 1 μL of compound (0.4% final DMSO) was added to 3 μL of 10 ng/well Syk (Promega) and 0.2 mg/mL Poly-E4Y1 substrate (Promega) in assay buffer (final 40 mM Tris-HCl pH 7.4, 20 mM MgCl2, 0.1 mg/mL BSA) for 5 minutes. The reaction was initiated by addition of 1 μL of ATP (40 μM final) and allowed to proceed for 60 minutes at room temperature. The reaction was terminated by addition of 5 μL of ADP-Glo Reagent Mix (Promega) containing 1 mM MgCl2 for 45 minutes at room temperature. 10 μL of Kinase Detection Reagent (Promega) was added and incubated for 10 minutes at room temperature, before luminescence was measured using an Ensight Multimode Plate Reader (Perkin Elmer).

A further test concerns the target T2, Ba/F3-Syk cells (Homo sapiens, UniProt P43405).
T2 construct: fused on or other part: Possible but unprinted fusion partner: TEL (ETV6), the usual partner for Ba/F3 lines transformed by Syk; Nothing on a partner is printed
The test is described as follows: Ba/F3 Proliferation Assay, Ba/F3-Syk cells (Resazurin). It is filed as cell-based. The conditions noted are these: 48-hour incubation. In general terms: Alamar Blue is a resazurin reagent that responds to reducing activity.

Test [1] concerns Ba/F3-WT (wild type) cells. The experiment in a line: Ba/F3 Proliferation Assay, Ba/F3-WT (wild type) cells with mIL-3 (Resazurin). Conditions: Ba/F3-WT cells +mIL-3, 48-hour incubation. Format: cell-based.

As usually defined, the IC50 is the concentration that gives 50% inhibition. What is called EC50 is the concentration giving half of the maximal effect.

Consider `C[C@H]1CNC[C@@H](COc2nc(-c3cnn(C)c3)cc3ncccc23)O1` (relative stereo) [Compound 2.24, 7-(1-methyl-1H-pyrazol-4-yl)-5-{[(rel-2S,6S)-6-methylmorpholin-2-yl]methoxy}-1,6-naphthyridine], for which, on Syk, the IC50 was found to be 128 nM. Further, the EC50 on Ba/F3-Syk cells was 135 nM; in test [1] (Mus musculus, BaF3, 48 h), 1500 nM.

For `C[C@@H]1CNC[C@@H](COc2nc(-c3cnn(C)c3)cc3ncccc23)O1` (relative stereo) [Compound 2.25, 7-(1-methyl-1H-pyrazol-4-yl)-5-{[(rel-2S,6R)-6-methylmorpholin-2-yl]methoxy}-1,6-naphthyridine], the IC50 on Syk worked out at 39 nM. Moreover, the EC50 at Ba/F3-Syk cells was 62.1 nM; in test [1] (Mus musculus, BaF3, 48 h) it was 1510 nM.

Turning to `C[C@H]1CO[C@H](COc2nc(-c3cnn(C)c3)cc3ncccc23)CN1` (relative stereo) [Compound 2.26, 7-(1-methyl-1H-pyrazol-4-yl)-5-{[(rel-2S,5S)-5-methylmorpholin-2-yl]methoxy}-1,6-naphthyridine], the IC50 on Syk amounted to 131 nM. Moreover, the EC50 came to 216 nM on Ba/F3-Syk cells and 1450 nM in test [1] (Mus musculus, BaF3, 48 h).

Regarding `C[C@@H]1CO[C@H](COc2nc(-c3cnn(C)c3)cc3ncccc23)CN1` (relative stereo) [Compound 2.27, 7-(1-methyl-1H-pyrazol-4-yl)-5-{[(rel-2S,5R)-5-methylmorpholin-2-yl]methoxy}-1,6-naphthyridine], the IC50 at Syk was determined as 247 nM. In addition, the concentration giving a half-maximal response (EC50) was found to be 305 nM on Ba/F3-Syk cells and 1500 nM in test [1] (Mus musculus, BaF3, 48 h).

In the case of `CC(C)(C)n1cc(-c2cc3ncccc3c(OC[C@H]3OC[C@@H]4C[C@H]3N4)n2)cn1` (relative stereo) [Compound 2.106, 7-(1-tert-butyl-1H-pyrazol-4-yl)-5-{[rel-(1R,2S,5S)-3-oxa-6-azabicyclo[3.1.1]heptan-2-yl]methoxy}-1,6-naphthyridine], the IC50 at Syk was 23.6 nM. The EC50 was 55.5 nM on Ba/F3-Syk cells and 575 nM in test [1].

As to `Cc1ccnc2cc(-c3cnn(C(C)(C)C)c3)nc(OC[C@@H]3CNCC(C)(C)O3)c12` (stereo in doubt) [Compound 14.6, 7-(1-tert-butyl-1H-pyrazol-4-yl)-5-[(6,6-dimethylmorpholin-2-yl)methoxy]-4-methyl-1,6-naphthyridine], the IC50 at Syk came to 12.9 nM. In addition, the EC50 on Ba/F3-Syk cells was 6.1 nM; in test [1] (Mus musculus, BaF3, 48 h) it was 2670 nM.

With `Cn1cc(-c2cc3ncccc3c(OCC3CNCCO3)n2)cn1` (centres unmarked) [Compound 2.1, 7-(1-methyl-1H-pyrazol-4-yl)-5-[(morpholin-2-yl)methoxy]-1,6-naphthyridine], the IC50 at Syk was 50.8 nM. Also, the EC50 at Ba/F3-Syk cells stood at 92.8 nM; in test [1] (Mus musculus, BaF3, 48 h), 1250 nM.

With `Cn1cc(-c2cc3ncccc3c(OC[C@H]3CNCCO3)n2)cn1` [Compound 2.2, 7-(1-methyl-1H-pyrazol-4-yl)-5-{[(2R)-morpholin-2-yl]methoxy}-1,6-naphthyridine], the IC50 on Syk came out at 130 nM. The EC50 at Ba/F3-Syk cells is 355 nM; in test [1] (Mus musculus, BaF3, 48 h) it was 1760 nM.

Take `Cn1cc(-c2cc3ncccc3c(OC[C@@H]3CNCCO3)n2)cn1` [Compound 2.3, 7-(1-methyl-1H-pyrazol-4-yl)-5-{[(2S)-morpholin-2-yl]methoxy}-1,6-naphthyridine]: the IC50 on Syk is 39 nM. For the same compound, the EC50 at Ba/F3-Syk cells turned out to be 105 nM; in test [1] (Mus musculus, BaF3, 48 h), 2350 nM.

As to `c1cnc2cc(-c3cnn(C4COC4)c3)nc(OC[C@@H]3CNCCO3)c2c1` [Compound 2.11, 5-{[(2S)-morpholin-2-yl]methoxy}-7-[1-(oxetan-3-yl)-1H-pyrazol-4-yl]-1,6-naphthyridine], the IC50 on Syk came to 18.2 nM. The compound also came in with an EC50 at Ba/F3-Syk cells of 131 nM.

On to `FC(F)Cn1ccc(-c2cc(OC[C@@H]3CNCCO3)c3cccnc3c2)c1` [Compound 7.2, 7-[1-(2,2-difluoroethyl)-1H-pyrrol-3-yl]-5-{[(2S)-morpholin-2-yl]methoxy}quinoline], for which the concentration for half-maximal inhibition (IC50) at Syk was 10.1 nM. In addition, the EC50 in test [1] is 2480 nM; in test [1] (Mus musculus, BaF3, 48 h), 2110 nM.

The values are drawn from patent US20250263408A1 (Uniquest Pty Ltd, priority 2022, published 2025).
